Values after ≈ are worked out from the molar mass of the structure shown. Where two headings read alike, the source gives them in different places.
Legend:
Assay type in all cases: cell-based
[1] = tested on: S. aureus ATCC 6538; experiment: MBC by Miles-Misra drop-plate method, S. aureus; conditions: Staphylococcus aureus
Description: (§1) Antibacterial susceptibility testing was performed in triplicate (biological) by measuring minimum inhibitory concentrations (MICs) by broth microdilution in 96-well flat bottom microtiter plates (ThermoFisher Scientific, New Zealand). S. uberis ATCC 19436, S. aureus ATCC 6538, or E. coli ATCC 10596 cells grown overnight were diluted to an OD600 of approximately 0.025, so that the final concentration of cells in the MIC assay was approximately 5×10^5 cfu/mL in media as follows: S. uberis; Todd Hewitt Broth (THB), S. aureus; Tryptic Soy Broth (TSB) and Cation Adjusted Muller Hinton Broth (CAMHB), and E. coli; Lysogeny Borth (LB) and CAMHB, before being dispensed into microtiter wells. As required additional sterile Zinc Sulphate (Heptahydrate) was supplemented into the media, so the final concentration was 50 μM. Test compounds were added to starting wells and two-fold serial dilutions were undertaken to generate a range of inhibitor concentrations at a final volume of 200 μl. Media and test compound-free (untreated) controls were included in each microtiter plate in triplicate. After 24 h incubation at 37° C. and 200 rpm, the OD600 of wells were read using a Varioskan Flash plate reader (ThermoFisher Scientific, New Zealand). The MIC was reported as the lowest concentration of the test compound for which no growth occurred, as determined by OD600 readings. The minimum bactericidal concentration (MBC) was determined using the Miles-Misra drop-plate method to measure the viability of cells in response to test compound challenge.

[2] = tested on: S. uberis ATCC 19436; experiment: MBC by Miles-Misra drop-plate method, S. uberis; conditions: Streptococcus uberis
Description: as §1

[3] = tested on: S. aureus ATCC 6538; experiment: MIC by broth microdilution, S. aureus; conditions: Staphylococcus aureus
In short: (§2)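 Overnight cultures diluted to ~5×10^5 cfu/mL final; S. aureus in TSB and CAMHB, E. coli in LB and CAMHB, zinc sulphate to 50 μM final as required; two-fold serial dilutions. MIC = lowest concentration with no growth by OD600 after 24 h, 37° C, 200 rpm. MBC by Miles-Misra drop-plate viability count.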

[4] = tested on: E. coli ATCC 10536; experiment: MBC by Miles-Misra drop-plate method, E. coli; conditions: Escherichia coli
Description: as §1

[5] = tested on: S. uberis ATCC 19436; experiment: MIC by broth microdilution, S. uberis; conditions: Streptococcus uberis
In short: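 This broth microdilution assay used S. uberis ATCC 19436 in Todd Hewitt Broth, with zinc sulphate heptahydrate added where required to a final 50 μM. Inhibitor concentration ranges came from two-fold serial dilutions in 96-well flat bottom plates at 200 μl. Approximately 5×10^5 cfu/mL cells were incubated for 24 h at 37° C. and 200 rpm. Wells were then read at OD600 on a Varioskan Flash reader.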

[6] = tested on: E. coli ATCC 10596; experiment: MIC by broth microdilution, E. coli; conditions: Escherichia coli
In short: as §2

[7] = ATCC6538, No Zinc, read-out: S. aureus ATCC 6538 MBC
[8] = ATCC6538, Zinc (50 μM), read-out: S. aureus ATCC 6538 MBC
[9] = ATCC19436, No Zinc, read-out: S. uberis ATCC 19436 MBC
[10] = ATCC19436, Zinc (50 μM), read-out: S. uberis ATCC 19436 MBC
[11] = ATCC6538, No Zinc, read-out: S. aureus ATCC 6538 MIC
[12] = ATCC6538, Zinc (50 μM), read-out: S. aureus ATCC 6538 MIC
[13] = ATCC10536, No Zinc, read-out: E. coli ATCC 10536 MBC
[14] = ATCC10536, Zinc (50 μM), read-out: E. coli ATCC 10536 MBC
[15] = ATCC19436, No Zinc, read-out: S. uberis ATCC 19436 MIC
[16] = ATCC19436, Zinc (50 μM), read-out: S. uberis ATCC 19436 MIC
[17] = ATCC 10536 / ATCC 10596, No Zinc, read-out: E. coli ATCC 10536 MIC
[18] = ATCC 10536 / ATCC 10596, Zinc (50 μM), read-out: E. coli ATCC 10536 MIC

Row | Structure (SMILES) | MBC [1, 7] [µg/mL] | MBC [1, 8] [µg/mL] | MBC [2, 9] [µg/mL] | MBC [2, 10] [µg/mL] | MIC [3, 11] [µg/mL] | MIC [3, 12] [µg/mL] | MBC [4, 13] [µg/mL] | MBC [4, 14] [µg/mL] | MIC [5, 15] [µg/mL] | MIC [5, 16] [µg/mL] | MIC [6, 17] [µg/mL] | MIC [6, 18] [µg/mL] | also measured
1 | O=S(=O)(Nc1cccc2ccc(/C=N/O)nc12)c1ccc(C(F)(F)F)cc1 [ZDR125, (E)-N-(2-((Hydroxyimino)methyl)quinolin-8-yl)-4-(trifluoromethyl)benzenesulfonamide] | > 256 | > 256 | 8 (≈ 20.2 µM) | 0.5 (≈ 1.26 µM) | 4 (≈ 10.1 µM) | 4 (≈ 10.1 µM) | > 256 | > 256 | 8 (≈ 20.2 µM) | 0.125 (≈ 0.316 µM) | > 256 | > 256 | –
2 | N/N=C/c1ccc2cccc(NS(=O)(=O)c3ccc(C(F)(F)F)cc3)c2n1 [ZDR127, (E)-N-(2-(Hydrazineylidenemethyl)quinolin-8-yl)-4-(trifluoromethyl)benzenesulfonamide] | > 256 | > 256 | > 256 | 2 (≈ 5.07 µM) | 16 (≈ 40.6 µM) | 16 (≈ 40.6 µM) | > 256 | > 256 | > 256 | 1 (≈ 2.54 µM) | > 256 | > 256 | –
3 | N=C(N)NCCNCc1ccc2cccc(NS(=O)(=O)c3ccc(C(F)(F)F)cc3)c2n1 [ZDR143, N-(2-(((2-Guanidinoethyl)amino)methyl)quinolin-8-yl)-4-(trifluoromethyl)benzenesulfonamide di-trifluoroacetate] | – | – | – | – | – | – | – | – | – | – | – | – | MBC ([1]; ATCC6538, read-out: S. aureus ATCC 6538 MBC, No Zinc): 16 µg/mL (≈ 34.3 µM); MBC ([1]; ATCC6538, read-out: S. aureus ATCC 6538 MBC, Zinc (50 μM)): 16 µg/mL (≈ 34.3 µM); MBC ([2]; ATCC19436, read-out: S. uberis ATCC 19436 MBC, No Zinc): 8 µg/mL (≈ 17.1 µM); MBC ([2]; ATCC19436, read-out: S. uberis ATCC 19436 MBC, Zinc (50 μM)): 8 µg/mL (≈ 17.1 µM); MIC ([3]; ATCC6538, read-out: S. aureus ATCC 6538 MIC, No Zinc): 8 µg/mL (≈ 17.1 µM); MIC ([3]; ATCC6538, read-out: S. aureus ATCC 6538 MIC, Zinc (50 μM)): 8 µg/mL (≈ 17.1 µM); MBC ([4]; ATCC10536, read-out: E. coli ATCC 10536 MBC, No Zinc): 32 µg/mL (≈ 68.6 µM); MBC ([4]; ATCC10536, read-out: E. coli ATCC 10536 MBC, Zinc (50 μM)): 32 µg/mL (≈ 68.6 µM); MIC ([5]; ATCC19436, read-out: S. uberis ATCC 19436 MIC, No Zinc): 8 µg/mL (≈ 17.1 µM); MIC ([5]; ATCC19436, read-out: S. uberis ATCC 19436 MIC, Zinc (50 μM)): 4 µg/mL (≈ 8.57 µM); MIC ([6]; ATCC 10536 / ATCC 10596, read-out: E. coli ATCC 10536 MIC, No Zinc): 16 µg/mL (≈ 34.3 µM); MIC ([6]; ATCC 10536 / ATCC 10596, read-out: E. coli ATCC 10536 MIC, Zinc (50 μM)): 16 µg/mL (≈ 34.3 µM)
4 | O=S(=O)(Nc1cccc2ccc(CNc3cc(Cl)cc(Cl)c3O)nc12)c1ccc(C(F)(F)F)cc1 [ZDR167, N-(2-(((3,5-Dichloro-2-hydroxyphenyl)amino)methyl)quinolin-8-yl)-4-(trifluoromethyl)benzenesulfonamide] | 8 (≈ 14.8 µM) | 8 (≈ 14.8 µM) | 8 (≈ 14.8 µM) | 0.5 (≈ 0.922 µM) | 2 (≈ 3.69 µM) | 2 (≈ 3.69 µM) | > 256 | > 256 | 2 (≈ 3.69 µM) | 0.5 (≈ 0.922 µM) | > 256 | > 256 | –
5 | O=[N+]([O-])c1ccc(O)c(NCc2ccc3cccc(NS(=O)(=O)c4ccc(C(F)(F)F)cc4)c3n2)c1 [ZDR170, N-(2-(((2-Hydroxy-5-nitrophenyl)amino)methyl)quinolin-8-yl)-4-(trifluoromethyl)benzenesulfonamide] | 128 (≈ 247 µM) | 128 (≈ 247 µM) | 16 (≈ 30.9 µM) | 2 (≈ 3.86 µM) | 8 (≈ 15.4 µM) | 4 (≈ 7.71 µM) | > 256 | > 256 | 8 (≈ 15.4 µM) | 1 (≈ 1.93 µM) | 256 (≈ 494 µM) | 256 (≈ 494 µM) | –

Source: patent US11691949B2, “Quinoline sulfonamide compounds and their use as antibacterial agents” (OTAGO INNOVATION LIMITED, priority 2017, dated 2023)
